Measured values taken from EP3046573B1, “AMYLIN ANALOGUES” (Zealand Pharma A/S, priority 2013, dated 2015).
pEC50: −log10 of the molar value. Where two headings read alike, the source gives them in different places. Numbered stars: 1 amine (or outer) side, 2 acyl side, 3 side chain; on linkers, the order of the positions; unused ones are H or OH. Bridge positions count the residues as written; N and C are the ends. Square brackets hold non-standard residues; d marks the D form. Peptide text beside a SMILES is read from it. * marks the point of attachment. C20 diacid = O=C(O)CCCCCCCCCCCCCCCCCCC(=O)*; γGlu = O=C(O)[C@H](CCC(=O)[*:2])N[*:1]; NMeI = CC[C@H](C)[C@H](NC)C(=O)O; Sar = CNCC(=O)O

What was measured:
[1] = molecular target: T1, human calcitonin receptor (hCTR2) (Homo sapiens, UniProt P30988); experiment: hCTR2 assay: induction of cAMP (AlphaScreen cAMP Assay kit) in COS7 cells expressing hCTR2; format: cell-based
T1 construct: expressed in transfected cells
T1 sequence (P30988 25-474): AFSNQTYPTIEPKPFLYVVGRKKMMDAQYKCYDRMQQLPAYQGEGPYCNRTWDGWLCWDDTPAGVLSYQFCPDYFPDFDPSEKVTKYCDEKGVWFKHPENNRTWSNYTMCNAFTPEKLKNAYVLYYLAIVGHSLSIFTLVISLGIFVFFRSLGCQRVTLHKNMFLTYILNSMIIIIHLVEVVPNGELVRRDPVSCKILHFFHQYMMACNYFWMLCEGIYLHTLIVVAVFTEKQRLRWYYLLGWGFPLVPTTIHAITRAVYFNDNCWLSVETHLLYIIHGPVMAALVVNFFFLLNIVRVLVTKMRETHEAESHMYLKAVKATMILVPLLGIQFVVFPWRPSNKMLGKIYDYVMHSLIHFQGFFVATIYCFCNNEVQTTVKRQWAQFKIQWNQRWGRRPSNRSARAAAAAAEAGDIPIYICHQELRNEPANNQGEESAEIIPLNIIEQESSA
Summary of the method: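 Functional agonism is measured as cAMP accumulation in a COS7 line stably transfected with hCTR2, lacking endogenous RAMPs. Peptides act for 15 min at 37° C with IBMX present, and curves are fitted with a 4-parameter logistic model.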

[2] = Solubility assessment (turbidity absorbance at 325 nm); format: physicochemical; conditions: stock 2 mg/ml diluted 1:1, ambient temperature (typically 25°C), n=1; for Solubility, Acetate buffer pH 4: 100 mM acetate buffer pH 4.0; for Solubility, Acetate buffer pH 5: 100 mM acetate buffer pH 5.0; for Solubility, Histidine buffer pH 6: 100 mM histidine buffer pH 6.0; for Solubility, Histidine buffer pH 7: 100 mM histidine buffer pH 7.0; for Solubility, Phosphate buffer pH 6: 100 mM phosphate buffer pH 6.0; for Solubility, Phosphate buffer pH 7: 100 mM phosphate buffer pH 7.0; for Solubility, Phosphate buffer pH 7.5: 100 mM phosphate buffer pH7.5
Summary of the method: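 Peptide stock (2 mg/ml, water pH 2.5) diluted 1:1 into 100 mM acetate (pH 4.0, 5.0), histidine (pH 6.0, 7.0) or phosphate (pH 6.0–7.5) buffer; absorbance at 325 nm read at about 25°C, n=1. A325 ≤ 0.02 taken as solubility ≥ 1 mg/ml.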

[3] = cAMP induction in COS7 cells expressing hCTR2, average of a minimum of 3 determinations, read-out: hCTR2 EC50

What does the source list for `CC[C@H](C)[C@@H](C(=O)N[C@@H](CC(C)C)C(=O)N[C@H](CO)C(=O)N[C@@H](CO)C(=O)N[C@H](C(=O)N[C@@H](CC(N)=O)C(=O)N[C@H](C(=O)NCC(=O)N[C@@H](CO)C(=O)N[C@@H](CC(N)=O)C(=O)N[C@H](C(=O)N1CCC[C@H]1C(N)=O)[C@@H](C)O)C(C)C)[C@@H](C)O)N(C)C(=O)CN(C)C(=O)[C@H](Cc1ccccc1)NC(=O)[C@H](CC(N)=O)NC(=O)[C@H](CC(N)=O)NC(=O)[C@H](CO)NC(=O)[C@H](CO)NC(=O)[C@H](CCCNC(=N)N)NC(=O)[C@H](Cc1c[nH]cn1)NC(=O)[C@H](CC(C)C)NC(=O)[C@H](Cc1ccccc1)NC(=O)[C@H](CCC(=O)O)NC(=O)[C@H](C)NC(=O)[C@H](CC(C)C)NC(=O)[C@H](CCCNC(=N)N)NC(=O)[C@H](CCC(N)=O)NC(=O)[C@@H](NC(=O)[C@H](C)NC(=O)[C@@H]1CSSC[C@H](NC(=O)[C@H](CCCCN)NC(=O)CC[C@H](NC(=O)CCCCCCCCCCCCCCCCCCC(=O)O)C(=O)O)C(=O)N[C@@H](CC(N)=O)C(=O)N[C@@H]([C@@H](C)O)C(=O)N[C@@H](C)C(=O)N[C@@H]([C@@H](C)O)C(=O)N1)[C@@H](C)O` [Compound 70, [19CD]-isoGlu-KC()NTATC()ATQRLAEFLHRSSNNF-Gly(Me)-Ile(Me)-L-DSer-STNVGSNTP-NH2] ({C20 diacid-γGlu}-KCNTATCATQRLAEFLHRSSNNF[Sar][NMeI]L[dS]STNVGSNTP-NH2; disulfide 2-7)?
pEC50 [1, 3]: 9.96; Solubility, Acetate buffer pH 4 [2]: SS (SS indicates solubility ≥ 1mg/ml); Solubility, Acetate buffer pH 5 [2]: SS (SS indicates solubility ≥ 1mg/ml); Solubility, Histidine buffer pH 6 [2]: SS (SS indicates solubility ≥ 1mg/ml); Solubility, Histidine buffer pH 7 [2]: SS (SS indicates solubility ≥ 1mg/ml); Solubility, Phosphate buffer pH 6 [2]: SS (SS indicates solubility ≥ 1mg/ml); Solubility, Phosphate buffer pH 7 [2]: SS (SS indicates solubility ≥ 1mg/ml); Solubility, Phosphate buffer pH 7.5 [2]: SS (SS indicates solubility ≥ 1mg/ml)

With `CC[C@H](C)[C@@H](C(=O)N[C@@H](CC(C)C)C(=O)N[C@@H](CO)C(=O)N[C@@H](CO)C(=O)N[C@H](C(=O)N[C@@H](CC(N)=O)C(=O)N[C@H](C(=O)NCC(=O)N[C@@H](CO)C(=O)N[C@@H](CC(N)=O)C(=O)N[C@H](C(=O)N1CCC[C@H]1C(N)=O)[C@@H](C)O)C(C)C)[C@@H](C)O)N(C)C(=O)[C@H](C)NC(=O)CN(C)C(=O)[C@@H](Cc1ccccc1)NC(=O)[C@H](CC(N)=O)NC(=O)[C@H](CC(N)=O)NC(=O)[C@H](CO)NC(=O)[C@H](CO)NC(=O)[C@H](CCCNC(=N)N)NC(=O)[C@H](Cc1c[nH]cn1)NC(=O)[C@H](CC(C)C)NC(=O)[C@H](Cc1ccccc1)NC(=O)[C@H](CCC(=O)O)NC(=O)[C@H](C)NC(=O)[C@H](CC(C)C)NC(=O)[C@H](CCCNC(=N)N)NC(=O)[C@H](CCC(N)=O)NC(=O)[C@@H](NC(=O)[C@H](C)NC(=O)[C@@H]1CSSC[C@H](NC(=O)[C@H](CCCCN)NC(=O)CC[C@H](NC(=O)CCCCCCCCCCCCCCCCCCC(=O)O)C(=O)O)C(=O)N[C@@H](CC(N)=O)C(=O)N[C@@H]([C@@H](C)O)C(=O)N[C@@H](C)C(=O)N[C@@H]([C@@H](C)O)C(=O)N1)[C@@H](C)O` [Compound 71, [19CD]-isoGlu-KC()NTATC()ATQRLAEFLHRSSNN-DPhe-Gly(Me)-A-Ile(Me)-LSSTNVGSNTP-NH2] ({C20 diacid-γGlu}-KCNTATCATQRLAEFLHRSSNN[dF][Sar]A[NMeI]LSSTNVGSNTP-NH2; disulfide 2-7) as the compound, how does the pEC50 [1] read?
The pEC50 was 10.17.

What about the “Solubility, Acetate buffer pH 4” value [2] of the same compound?
The value was “SS (SS indicates solubility ≥ 1mg/ml)”.

And the “Solubility, Acetate buffer pH 5” value [2]?
The value was “SS (SS indicates solubility ≥ 1mg/ml)”.

What about the “Solubility, Histidine buffer pH 6” value [2] of the same compound?
The value was “SS (SS indicates solubility ≥ 1mg/ml)”.

And the “Solubility, Histidine buffer pH 7” value [2]?
The value was “SS (SS indicates solubility ≥ 1mg/ml)”.

What about the “Solubility, Phosphate buffer pH 6” value [2] of the same compound?
The value was “SS (SS indicates solubility ≥ 1mg/ml)”.

And the “Solubility, Phosphate buffer pH 7” value [2]?
The value was “SS (SS indicates solubility ≥ 1mg/ml)”.

And the “Solubility, Phosphate buffer pH 7.5” value [2]?
The value was “SS (SS indicates solubility ≥ 1mg/ml)”.

With `CC[C@H](C)[C@@H](C(=O)N[C@@H](CC(C)C)C(=O)N[C@@H](CO)C(=O)N[C@@H](CO)C(=O)N[C@H](C(=O)N[C@@H](CC(=O)O)C(=O)N[C@H](C(=O)NCC(=O)N[C@@H](CO)C(=O)N[C@@H](CCC(=O)O)C(=O)N[C@H](C(=O)N1CCC[C@H]1C(N)=O)[C@@H](C)O)C(C)C)[C@@H](C)O)N(C)C(=O)[C@H](C)NC(=O)CN(C)C(=O)[C@H](Cc1ccccc1)NC(=O)[C@H](CO)NC(=O)[C@H](CO)NC(=O)[C@H](CO)NC(=O)[C@H](CO)NC(=O)[C@H](CCCNC(=N)N)NC(=O)[C@H](Cc1c[nH]cn1)NC(=O)[C@H](CC(C)C)NC(=O)[C@H](Cc1ccccc1)NC(=O)[C@H](CCC(=O)O)NC(=O)[C@H](C)NC(=O)[C@H](CC(C)C)NC(=O)[C@H](CCCNC(=N)N)NC(=O)[C@H](CCC(N)=O)NC(=O)[C@@H](NC(=O)[C@H](C)NC(=O)[C@@H]1CSSC[C@H](NC(=O)[C@H](CCCNC(=N)N)NC(=O)CC[C@H](NC(=O)CCCCCCCCCCCCCCCCCCC(=O)O)C(=O)O)C(=O)N[C@@H](CC(N)=O)C(=O)N[C@@H]([C@@H](C)O)C(=O)N[C@@H](C)C(=O)N[C@@H]([C@@H](C)O)C(=O)N1)[C@@H](C)O` [Compound 74, [19CD]-isoGlu-RC()NTATC()ATQRLAEFLHRSSSSF-Gly(Me)-A-Ile(Me)-LSSTDVGSETP-NH2] ({C20 diacid-γGlu}-RCNTATCATQRLAEFLHRSSSSF[Sar]A[NMeI]LSSTDVGSETP-NH2; disulfide 2-7) as the compound, how does the pEC50 [1, 3] read?
Its pEC50 is 10.01.

What about the “Solubility, Acetate buffer pH 4” value [2] of the same compound?
The value was “SS (SS indicates solubility ≥ 1mg/ml)”.

What about the “Solubility, Acetate buffer pH 5” value [2] of the same compound?
The value was “SS (SS indicates solubility ≥ 1mg/ml)”.

And the “Solubility, Histidine buffer pH 6” value [2]?
Its value is “SS (SS indicates solubility ≥ 1mg/ml)”.

And the “Solubility, Histidine buffer pH 7” value [2]?
The value was “SS (SS indicates solubility ≥ 1mg/ml)”.

What about the “Solubility, Phosphate buffer pH 6” value [2] of the same compound?
Its value is “SS (SS indicates solubility ≥ 1mg/ml)”.

What about the “Solubility, Phosphate buffer pH 7” value [2] of the same compound?
The value was “SS (SS indicates solubility ≥ 1mg/ml)”.

And the “Solubility, Phosphate buffer pH 7.5” value [2]?
Its value is “SS (SS indicates solubility ≥ 1mg/ml)”.

With `CC[C@H](C)[C@@H](C(=O)N[C@@H](CC(C)C)C(=O)N[C@@H](CO)C(=O)N[C@@H](CO)C(=O)N[C@H](C(=O)N[C@@H](CC(=O)O)C(=O)N[C@H](C(=O)NCC(=O)N[C@@H](CO)C(=O)N[C@@H](CCC(=O)O)C(=O)N[C@H](C(=O)N1CCC[C@H]1C(N)=O)[C@@H](C)O)C(C)C)[C@@H](C)O)N(C)C(=O)CN(C)C(=O)[C@H](Cc1ccccc1)NC(=O)[C@H](CO)NC(=O)[C@H](CO)NC(=O)[C@H](CO)NC(=O)[C@H](CO)NC(=O)[C@H](CCCNC(=N)N)NC(=O)[C@H](Cc1c[nH]cn1)NC(=O)[C@H](CC(C)C)NC(=O)[C@H](Cc1ccccc1)NC(=O)[C@H](CCC(=O)O)NC(=O)[C@H](C)NC(=O)[C@H](CC(C)C)NC(=O)[C@H](CCCNC(=N)N)NC(=O)[C@H](CCC(N)=O)NC(=O)[C@@H](NC(=O)[C@H](C)NC(=O)[C@@H]1CSSC[C@H](NC(=O)[C@H](CCCNC(=N)N)NC(=O)CC[C@H](NC(=O)CCCCCCCCCCCCCCCCCCC(=O)O)C(=O)O)C(=O)N[C@@H](CC(N)=O)C(=O)N[C@@H]([C@@H](C)O)C(=O)N[C@@H](C)C(=O)N[C@@H]([C@@H](C)O)C(=O)N1)[C@@H](C)O` [Compound 75, [19CD]-isoGlu-RC()NTATC()ATQRLAEFLHRSSSSF-Gly(Me)-Ile(Me)-LSSTDVGSETP-NH2] ({C20 diacid-γGlu}-RCNTATCATQRLAEFLHRSSSSF[Sar][NMeI]LSSTDVGSETP-NH2; disulfide 2-7) as the compound, how does the pEC50 [1, 3] read?
Its pEC50 is 9.96.

And the “Solubility, Acetate buffer pH 4” value [2]?
The value was “SS (SS indicates solubility ≥ 1mg/ml)”.

What about the “Solubility, Acetate buffer pH 5” value [2] of the same compound?
The value was “II (II indicates solubility ≤ 1 mg/ml)”.

What about the “Solubility, Histidine buffer pH 6” value [2] of the same compound?
Its value is “II (II indicates solubility ≤ 1 mg/ml)”.

And the “Solubility, Histidine buffer pH 7” value [2]?
The value was “SS (SS indicates solubility ≥ 1mg/ml)”.

And the “Solubility, Phosphate buffer pH 6” value [2]?
Its value is “SS (SS indicates solubility ≥ 1mg/ml)”.

What about the “Solubility, Phosphate buffer pH 7” value [2] of the same compound?
Its value is “SS (SS indicates solubility ≥ 1mg/ml)”.

What about the “Solubility, Phosphate buffer pH 7.5” value [2] of the same compound?
Its value is “SS (SS indicates solubility ≥ 1mg/ml)”.
